Laboratory results from the supplement of paper PMC13380429.

Experiments:
Settings in all cases: 72 h
Calu-3 [1] = experiment: cell viability relative to DMSO; higher = less toxic
Vero E6 [2] = experiment: as above
U2OS [3] = experiment: as above
Caco-2 [4] = experiment: as above
HepG2 [5] = experiment: as above
Calu-3 [6] = experiment: drug sensitivity score (DSS) for viability; higher = more toxic; extreme values may be limits of the assay
Vero E6 [7] = experiment: as above
U2OS [8] = experiment: as above
Caco-2 [9] = experiment: as above
HepG2 [10] = experiment: as above
Calu-3 [11] = experiment: relative viability EC50 (midpoint between 100% and the lowest measured viability); higher = less toxic
U2OS [12] = experiment: as above
Caco-2 [13] = experiment: as above
HepG2 [14] = experiment: as above
Vero E6 [15] = experiment: as above

SMILES | cell viability (Calu-3 [1]; 1 nM) [%] | cell viability (Calu-3 [1]; 10 nM) [%] | cell viability (Calu-3 [1]; 100 nM) [%] | cell viability (Calu-3 [1]; 1000 nM) [%] | cell viability (Calu-3 [1]; 10000 nM) [%] | cell viability (Vero E6 [2]; 1 nM) [%] | cell viability (Vero E6 [2]; 10 nM) [%] | cell viability (Vero E6 [2]; 100 nM) [%] | cell viability (Vero E6 [2]; 1000 nM) [%] | cell viability (Vero E6 [2]; 10000 nM) [%] | cell viability (U2OS [3]; 1 nM) [%] | cell viability (U2OS [3]; 10 nM) [%] | cell viability (U2OS [3]; 100 nM) [%] | cell viability (U2OS [3]; 1000 nM) [%] | cell viability (U2OS [3]; 10000 nM) [%] | cell viability (Caco-2 [4]; 1 nM) [%] | cell viability (Caco-2 [4]; 10 nM) [%] | cell viability (Caco-2 [4]; 100 nM) [%] | cell viability (Caco-2 [4]; 1000 nM) [%] | cell viability (Caco-2 [4]; 10000 nM) [%] | cell viability (HepG2 [5]; 1 nM) [%] | cell viability (HepG2 [5]; 10 nM) [%] | cell viability (HepG2 [5]; 100 nM) [%] | cell viability (HepG2 [5]; 1000 nM) [%] | cell viability (HepG2 [5]; 10000 nM) [%] | drug sensitivity score (Calu-3 [6]) | drug sensitivity score (Vero E6 [7]) | drug sensitivity score (U2OS [8]) | drug sensitivity score (Caco-2 [9]) | drug sensitivity score (HepG2 [10]) | relative viability EC50 (Calu-3 [11]) [µM] | relative viability EC50 (U2OS [12]) [µM] | relative viability EC50 (Caco-2 [13]) [µM] | relative viability EC50 (HepG2 [14]) [µM] | relative viability EC50 (Vero E6 [15]) [µM]
Nc1nc(-c2nn(Cc3ccccc3F)c3ncccc23)ncc1C1CC1 [BAY-41-2272] | 100 | 108 | 91.7 | 104 | 110 | 102 | 96.1 | 97.3 | 86 | 66.7 | 90 | 96.6 | 93.9 | 101 | 105 | 86.5 | 90.5 | 94.1 | 100 | 93.8 | 95.8 | 103 | 95.8 | 104 | 69.2 | 0 | 2.9 | 0 | 0 | 1.1 | > 10 | > 10 | > 10 |  | 
N#C/C(=C\c1ccc(O)cc1)C(=O)O [CHC] |  |  |  |  |  |  |  |  |  |  | 101 | 93.4 | 97.6 | 98.6 | 99.7 | 108 | 98.5 | 102 | 87.6 | 102 | 106 | 99 | 102 | 98 | 98.8 |  |  | 0 | 0 | 0 |  | > 10 | > 10 | > 10 | 
Fc1cccc(/C=N/N=C/c2cccc(F)c2)c1 [DFB] | 115 | 111 | 98.8 | 105 | 104 | 99.9 | 98.7 | 90 | 97.3 | 98.6 |  |  |  |  |  | 99.5 | 110 | 100 | 102 | 101 |  |  |  |  |  | 0 | 0 |  | 0 |  | > 10 |  | > 10 |  | > 10
COc1ccc2c(c1)/C(=C/c1cnc[nH]1)C(=O)N2 [SU9516] | 99.9 | 109 | 112 | 122 | 134 | 97.4 | 99.4 | 95.3 | 104 | 79 | 101 | 103 | 101 | 106 | 83.7 | 101 | 96 | 95.3 | 105 | 96.8 | 105 | 105 | 97.7 | 90.8 | 59.3 | 0 | 0.5 | 0.2 | 0 | 3.5 | > 10 | > 10 | > 10 |  | > 10
Nc1sc2c(c1C(=O)c1ccc(Cl)cc1)CCCC2 [T-62] |  |  |  |  |  |  |  |  |  |  | 98.5 | 101 | 100 | 101 | 98 | 93.7 | 99.3 | 88.8 | 92.4 | 90.8 | 105 | 98 | 103 | 101 | 107 |  |  | 0 | 0 | 0 |  | > 10 | > 10 | > 10 | 
CNc1nc(NCc2ccc(NS(C)(=O)=O)cc2Cl)cc(-c2ccccn2)n1 [TC-G-1008] | 105 | 113 | 98.2 | 90 | 83.7 | 105 | 106 | 98.3 | 101 | 81.5 | 100 | 108 | 101 | 100 | 79 | 93.1 | 105 | 90.4 | 95.1 | 78.5 | 93.9 | 91.2 | 106 | 99.4 | 54.8 | 0.9 | 0.4 | 0.6 | 0.9 | 2.4 | > 10 | > 10 | > 10 |  | > 10
NC(=O)c1nc(Nc2ccccc2)sc1NC(=O)C1CCCCC1 [UNC3230] | 86.3 | 84.9 | 90.8 | 79 | 69.7 | 99.1 | 92.6 | 98.1 | 99 | 70.8 | 102 | 96.9 | 97.5 | 93.8 | 88.8 | 98.6 | 97.8 | 98 | 89.2 | 75.1 | 96.6 | 104 | 88.1 | 104 | 88.5 | 5.6 | 1.4 | 0 | 1.9 | 0 |  | > 10 | > 10 | > 10 | 
O=c1ncn2nc(Sc3ccc(F)cc3F)ccc2c1-c1c(Cl)cccc1Cl [VX-745] | 97.1 | 107 | 98.7 | 82.9 | 95 | 106 | 105 | 95.8 | 86.1 | 86.1 | 102 | 108 | 98.4 | 94.9 | 87.9 | 107 | 96.5 | 104 | 99.7 | 82.6 |  |  |  |  |  | 2.1 | 1.4 | 0.1 | 0.4 |  | > 10 | > 10 | > 10 |  | > 10
CCOc1ccc2nc(SCCN3CCOCC3)[nH]c2c1 [afobazole] | 95.5 | 97.8 | 84.4 | 101 | 99.8 |  |  |  |  |  |  |  |  |  |  | 102 | 110 | 104 | 99.5 | 102 | 112 | 101 | 107 | 99.5 | 103 | 0 |  |  | 0 | 0 | > 10 |  | > 10 | > 10 | 
